According to patent US8088806B2 (Achillion Pharmaceuticals, Inc., priority 2005, dated 2012):
Structures can show the parent of a compound that is named as a salt.

tested on: HCV replicon; experiment: Replicon based assay of HCV replication inhibition (NPT ELISA); assay type: cell-based, Hepatitis C virus; conditions: Hepatitis C virus, Huh-7, 72 h, Table I; Huh-7 HCV replicon-containing cells, three days; read-out: Activity
In short: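 Huh-7 cells carrying a bicistronic HCV replicon (neo, EMCV-IRES-driven NS3–NS5B) treated overnight after seeding with usually 6 concentrations, 10 to 0.03 micromolar, for three days at 37° C without G418. Replication read as NPT level by captured ELISA; matched-DMSO wells and interferon alpha as controls.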

| SMILES | EC50 |
| --- | --- |
| CCCCCOc1ccc(Nc2nc(-c3cc(-c4ccc(Cl)c(Cl)c4)no3)cs2)cc1C(F)(F)F [compound 201, 4-(3-(3,4-dichlorophenyl)isoxazol-5-yl)-N-(3-(trifluoromethyl)-4-(pentyloxy)phenyl)thiazol-2-amine] | > 10000 nM |
| O=C(Nc1ccc(Oc2ccc(Cl)cc2)cc1)c1nc(-c2cccnc2)cs1 [compound 115, N-(4-(4-chlorophenoxy)phenyl)-4-(pyridin-3-yl)thiazole-2-carboxamide] | > 10000 nM |
| CCCCCc1ccc(Nc2nc(-c3ccc(Cl)c(Cl)c3)cs2)cc1 [compound 22, 4-(3,4-dichlorophenyl)-N-(4-pentylphenyl)thiazol-2-amine] | < 1000 nM |
| CCCCCOc1ccc(NC(=O)c2nc(-c3cccnc3)cs2)cc1 [compound 113, N-(4-(pentyloxy)phenyl)-4-(pyridin-3-yl)thiazole-2-carboxamide] | > 10000 nM |
| CCCCCOc1ccc(Nc2nc(C(=O)O)cs2)cc1C(F)(F)F [compound 10, 2-(3-(trifluoromethyl)-4-(pentyloxy)phenylamino)thiazole-4-carboxylic acid] | > 10000 nM |
| CCOC(=O)Cc1ccc(Nc2nc(-c3cccnc3)cs2)cc1 [compound 109, ethyl 2-(4-(4-(pyridin-3-yl)thiazol-2-ylamino)phenyl)acetate] | > 10000 nM |

same assay, conditions: Hepatitis C virus, Huh-7, 72 h, Table III; Huh-7 HCV replicon-containing cells, three days; read-out: Activity

| SMILES | EC50 |
| --- | --- |
| CCCCCOc1ccc(Nc2nc(/C=C/c3cccc(Cl)c3)cs2)cc1C(F)(F)F [compound 542, 4-(3-chlorostyryl)-N-(3-(trifluoromethyl)-4-(pentyloxy)phenyl)thiazol-2-amine] | < 1000 nM |
| CCCCCCCCOc1ccc(Nc2nc(-c3cncc(C(=O)O)c3)cs2)cc1 [compound 648, 5-(2-(4-(octyloxy)phenylamino)thiazol-4-yl)pyridine-3-carboxylic acid] | 1000 to 10000 nM |
| CCCCCCCCOc1ccc(Nc2nc(-c3ccc(N)nc3)cs2)cc1C(F)(F)F [compound 679, 5-(2-(3-(trifluoromethyl)-4-(octyloxy)phenylamino)thiazol-4-yl)pyridin-2-amine] | < 1000 nM |
| CCCCCCCCc1ccc(Nc2nc(-c3ccc(Cl)cc3)cs2)cc1 [compound 555, 4-(4-chlorophenyl)-N-(4-octylphenyl)thiazol-2-amine] | < 1000 nM |
| CCCCCCCCN(C)c1ccc(Nc2nc(-c3ccc(OCC(=O)O)cc3)c(C)s2)cc1C(F)(F)F [compound 574, 2-(4-(2-(4-(N-methyl-N-octylamino)-3-(trifluoromethyl)phenylamino)-5-methylthiazol-4-yl)phenoxy)acetic acid] | < 1000 nM |
| CCCCCOc1ccc(Nc2nc(Cc3ccc(F)cc3)cs2)cc1C(F)(F)F [compound 627, 4-(4-fluorobenzyl)-N-(3-(trifluoromethyl)-4-(pentyloxy)phenyl)thiazol-2-amine] | < 1000 nM |
| CCCCCCCCOc1ccc(Nc2nc(-c3ccc(C#N)o3)cs2)cc1C(F)(F)F [compound 703, 5-(2-(3-(trifluoromethyl)-4-(octyloxy)phenylamino)thiazol-4-yl)furan-2-carbonitrile] | < 1000 nM |
| CCCCCCCc1nc2cc(Nc3nc(-c4cnc(OC)nc4)cs3)ccc2o1 [compound 717, 2-heptyl-N-(4-(2-methoxypyrimidin-5-yl)thiazol-2-yl)benzo[d]oxazol-5-amine] | < 1000 nM |
| CCCCCCCCN(C)c1ccc(Nc2nc(-c3ccc(Cl)cc3)cs2)cc1C(F)(F)F [compound 579, N^4-(4-(4-chlorophenyl)thiazol-2-yl)-2-(trifluoromethyl)-N^1-methyl-N^1-octylbenzene-1,4-diamine] | < 1000 nM |

same assay, conditions: Hepatitis C virus, replicon based assay of HCV replication inhibition; Table II; read-out: Activity

| SMILES | EC50 |
| --- | --- |
| CCCCCOc1ccc(Nc2nc(CN3CCC(C)CC3)cs2)cc1F [compound 295, N-(3-fluoro-4-(pentyloxy)pheenyl)-4-((4-methylpiperidin-1-yl)methyl)thiazol-2-amine] | 1000 to 10000 nM |
| CCCCCCCCOc1ccc(Nc2nc(-c3cn4cccnc4n3)cs2)cc1 [compound 307, 4-(imidazo[1,2-a]pyrimidin-2-yl)-N-(4-(octyloxy)phenyl)thiazol-2-amine] | < 1000 nM |
| CCCCCCCCOc1ccc(Nc2nc(-c3cccc(O)c3)cs2)cc1 [compound 436, 3-(2-(4-(octyloxy)phenylamino)thia-zol-4-yl)phenol] | < 1000 nM |
| CCCCCCCCOc1ccc(Nc2nc(-c3ccc4[nH]c(=O)oc4c3)cs2)cc1 [compound 383, 6-(2-(4-(octyloxy)phenylamino)thia-zol-4-yl)benzo[d]oxazol-2(3H)-one] | < 1000 nM |
| CCCCCCCCOc1ccc(Nc2nc(-c3ccc(F)cc3)cs2)cc1 [compound 328, 4-(4-fluorophenyl)-N-(4-(octyloxy)phenyl)thiazol-2-amine] | < 1000 nM |
| Cc1sc(Nc2cccnc2)nc1-c1ccc(CC(=O)O)cc1 [compound 344, 2-(4-(5-methyl-2-(pyridin-3-ylamino)thiazol-4-yl)phenyl)acetic acid] | > 10000 nM |
| CCCCCOc1ccc(Nc2nc(C3=CSC4=NCCN34)cs2)cc1C(F)(F)F [compound 228, 4-(5,6-dihydroimidazo[2,1-b]thiazol-3-yl)-N-(4-(pentyloxy)-3-(trifluoromethyl)phenyl)thia-zol-2-amine] | < 1000 nM |
| Fc1ccc(-c2csc(Nc3ccc(OCC4CCCCC4)c(F)c3)n2)cc1 [compound 509, N-(4-(cyclohexylmethoxy)-3-fluorophenyl)-4-(4-fluorophenyl)thiazol-2-amine] | < 1000 nM |
| CCCCCOc1ccc(Nc2nc(C3CCCNC3)cs2)cc1C(F)(F)F (stereo not shown) [compound 225, N-(4-(pentyloxy)-3-(trifluoromethyl)phenyl)-4-(piperidin-3-yl)thiazol-2-amine hydrochloride] | 1000 to 10000 nM |
| CCCCCCCCOc1ccc(Nc2nc(-c3c[nH]c4ccccc34)cs2)cc1 [compound 386, 4-(1H-indol-3-yl)-N-(4-(octyloxy)pheenyl)thiazol-2-amine] | < 1000 nM |
| CC(=O)OCCCCCCN(C)c1ccc(Nc2nc(-c3ccc(F)cc3)cs2)cc1C(F)(F)F [compound 467] | > 10000 nM |
| Cc1sc(NC(=O)c2ccccc2)nc1-c1ccc(CC(=O)O)cc1 [compound 345, 2-(4-(2-benzamido-5-methylthiazol-4-yl)phenyl)acetic acid] | > 10000 nM |
| CCCCCCCCOc1ccc(Nc2nc(CN3CCC(O)C3)cs2)cc1 (stereo not shown) [compound 318, 1-((2-(4-(octyloxy)phenylamino)thia-zol-4-yl)methyl)pyrrolidin-3-ol] | < 1000 nM |
| CCCCCCCCOc1ccc(Nc2nc(-c3csc(N)n3)cs2)cc1 [compound 306, 4-(2-aminothiazol-4-yl)-N-(4-(octyloxy)phenyl)thiazol-2-amine] | < 1000 nM |
| CCCCCCCCOc1ccc(Nc2nc(-c3ccc(F)c(F)c3)cs2)cn1 [compound 474, N-(4-(3,4-difluorophenyl)thiazol-2-yl)-6-(octyloxy)pyridin-3-amine] | < 1000 nM |

same assay, conditions: Hepatitis C virus, replicon based assay of HCV replication inhibition; Table IV; read-out: Activity

| SMILES | EC50 |
| --- | --- |
| CCCCCCCCOc1ccc(Nc2nc(-c3cccnc3)c([N+](=O)[O-])s2)cc1C(F)(F)F [compound 787, N-(3-(trifluoromethyl)-4-(octyloxy)phenyl)-5-nitro-4-(pyridin-3-yl)thiazol-2-amine] | 1000 to 10000 nM |
| CCOC(=O)Cc1ccc(-c2csc(Nc3ccc(OCCN(CC)c4ccccc4)c(C(F)(F)F)c3)n2)s1 [compound 932] | 1000 to 10000 nM |
| c1ccc(Oc2ccc(Nc3nc(-c4cccnc4)cs3)cn2)cc1 [compound 752, 6-phenoxy-N-(4-(pyridin-3-yl)thiazol-2-yl)pyridin-3-amine] | 1000 to 10000 nM |
| Cc1ccnc(-c2csc(Nc3ccc(OCC4CCCCC4)c(C(F)(F)F)c3)n2)c1 [compound 768, N-(4-(cyclohexylmethoxy)-3-(trifluoromethyl)phenyl)-4-(4-methylpyridin-2-yl)thiazol-2-amine] | < 1000 nM |
| Fc1ccc(Nc2nc(-c3cccnc3)cs2)c(F)c1F [compound 889, N-(2,3,4-trifluorophenyl)-4-(pyridin-3-yl)thiazol-2-amine] | > 10000 nM |
| CCCCCCCCSc1ccc(Nc2nc(-c3cnc(OC)nc3)cs2)cc1C(F)(F)F [compound 777, N-(3-(trifluoromethyl)-4-(octylthio)phenyl)-4-(2-methoxypyrimidin-5-yl)thiazol-2-amine] | < 1000 nM |
| Fc1ccc(Nc2nc(-c3cccnc3)cs2)cc1C(F)(F)F [compound 875, N-(4-fluoro-3-(trifluoromethyl)phenyl)-4-(pyridin-3-yl)thiazol-2-amine] | 1000 to 10000 nM |
| FC(F)(F)c1cc(Nc2nc(-c3cccnc3)cs2)cc(C(F)(F)F)c1 [compound 874, N-(3,5-bis(trifluoromethyl)phenyl)-4-(pyridin-3-yl)thiazol-2-amine] | 1000 to 10000 nM |
| Nc1sc(Nc2ccc(OCc3ccccc3)cc2)nc1-c1ccc(F)cc1 [compound 858, N^2-(4-(benzyloxy)phenyl)-4-(4-fluorophenyl)thiazole-2,5-diamine] | 1000 to 10000 nM |
| CCCCCCCCOc1ccc(Nc2nc(-c3cccnc3C(N)=O)cs2)cc1C(F)(F)F [compound 814, 3-(2-(3-(trifluoromethyl)-4-(octyloxy)phenylamino)thiazol-4-yl)pyridine-2-carboxamide] | 1000 to 10000 nM |
| N#Cc1cncc(-c2csc(Nc3ccc(OCC4CCCCC4)c(F)c3)n2)c1 [compound 728, 5-(2-(4-(cyclohexylmethoxy)-3-fluorophenylamino)thiazol-4-yl)pyridine-3-carbonitrile] | < 1000 nM |
| CC(C)(C)OC(=O)Nc1ccc(Nc2nc(-c3cccnc3)cs2)cc1 [compound 895, tert-butyl 4-(4-(pyridin-3-yl)thiazol-2-ylamino)phenylcarbamate] | > 10000 nM |
| Cc1cccc(C#CCCOc2ccc(Nc3nc(-c4cccnc4)cs3)cc2C(F)(F)F)c1 [compound 949, N-(4-(4-m-tolylbut-3-ynyloxy)-3-(trifluoromethyl)phenyl)-4-(pyridin-3-yl)thiazol-2-amine] | < 1000 nM |
